In patent US10328141B2, “Synthetic vaccines against Streptococcus pneumoniae type 1” (MAX-PLANCK-GESELLSCHAFT ZUR FÖRDERUNG DER WISSENSCHAFTEN …, priority 2013, dated 2019):

Assays:
[1] = tested on: rabbit anti-Streptococcus pneumoniae type 1 typing serum; test: Glycan microarray binding of rabbit anti-SP1 typing serum to immobilised saccharides; settings: saccharides coated on modified GAPS II or CodeLink NHS slides; FIGS. 6-8
Procedure: (§1) Microarray slides coated with the saccharides of general formula (I) were synthesized by conjugating the saccharides of general formula (I) to said modified microarray slides, and incubated with rabbit anti-Streptococcus pneumoniae type 1 typing serum […] in the presence or absence of native Streptococcus pneumoniae type 1 polysaccharide.
Maleimide-functionalized microarrays were produced by submerging amine-coated slides (GAPS II slides, Corning) in 6-maleimidohexanoic acid N-hydroxysuccinimide ester (2 mM) in dry DMF with diisopropylethylamine (2.5% v/v) for 24 h at room temperature. Slides were washed three times with water and three times with ethanol, centrifuged to dryness, and stored under argon until spotting. Diluted saccharides of general formula (I) were printed onto the modified microarray slides at 0.4 nL per spot by an automatic piezoelectric arraying robot (Scienion, Berlin, Germany). For completion of the immobilization reaction, printed slides were stored for 24 h in a humidified chamber.
Microarray slides were washed three times with water. Unreacted maleimide was quenched by submerging the slides in β-mercaptoethanol (0.1%, v/v) in PBS for 1 h at room temperature. Slides were washed three times with water and with ethanol, centrifuged to dryness, and blocked with BSA (1%, w/v) in PBS for 1 h at room temperature. […]

[2] = tested on: human pneumococcal serum 007sp; test: Glycan microarray binding of human pneumococcal reference serum 007sp to immobilised saccharides; settings: saccharides coated on modified CodeLink NHS slides; pooled sera of 287 humans immunized with Pneumovax; FIG. 5
Procedure: as §1
[…] Slides were washed three times with water and three times with ethanol, centrifuged to dryness, and stored under argon until spotting. Diluted saccharides of general formula (I) were printed onto the modified microarray slides at 0.4 nL per spot by an automatic piezoelectric arraying robot (Scienion, Berlin, Germany). For completion of the immobilization reaction, printed slides were stored for 24 h in a humidified chamber.
Microarray slides were washed three times with water. Unreacted maleimide was quenched by submerging the slides in β-mercaptoethanol (0.1%, v/v) in PBS for 1 h at room temperature. Slides were washed three times with water and with ethanol, centrifuged to dryness, and blocked with BSA (1%, w/v) in PBS for 1 h at room temperature. Blocked slides were washed (2×PBS, 3×water), centrifuged, and incubated with the sera dilutions.
CodeLink NHS slides were incubated for 24 h (1% w/v in PBS) at 4° C. […]

SMILES	binding of rabbit anti-Streptococcus pneumoniae type 1 typing serum to saccharide structure on microarray slides [1]	binding of human pneumococcal serum 007sp to saccharide structure on microarray slides [2]
CC(=O)N[C@H]1[C@@H](O[C@@H]2[C@H](O)[C@@H](O)[C@@H](O[C@H]3[C@@H](O)[C@@H](C(=O)O)O[C@H](O)[C@@H]3O)O[C@@H]2C(=O)O)O[C@H](C)[C@H](N)[C@@H]1O [α-2,4,6-trideoxy-4-amino-D-GalNAc-(1→4)-α-D-GalAp-(1→3)-α-D-GalAp]	bound	bound
O=C(O)[C@H]1O[C@H](O[C@H]2[C@@H](O)[C@@H](C(=O)O)O[C@H](O)[C@@H]2O)[C@H](O)[C@@H](O)[C@H]1O [α-D-GalAp-(1→3)-α-D-GalAp]	bound	bound
